The source made the active and inactive calls. No cut-off for these calls is given here.
Assays:
[1] = Effect on GARS gene expression in human MDA-MB-231 cells by Trizol reagent based RNA sequencing analysis relative to control; assay type: functional
MDA-MB-231 = test: Induction of apoptosis in human MDA-MB-231 cells assessed as necrotic cells at 10 uM measured after 24 hrs by Annexin V-FITC/propidium iodide staining based flow cytometry (reference value: 0.16%); assay type: functional
[2] = target: Serine/threonine-protein kinase PAK 1 (Homo sapiens, UniProt Q13153); test: Inhibition of PAK1 phosphorylation at Ser199 residues in human MDA-MB-231 cells at 10 to 40 uM measured after 24 hrs by Western blot analysis; assay type: cell-based; details: dose 10-40 µM
Sequence of Serine/threonine-protein kinase PAK 1 (Q13153 whole entry): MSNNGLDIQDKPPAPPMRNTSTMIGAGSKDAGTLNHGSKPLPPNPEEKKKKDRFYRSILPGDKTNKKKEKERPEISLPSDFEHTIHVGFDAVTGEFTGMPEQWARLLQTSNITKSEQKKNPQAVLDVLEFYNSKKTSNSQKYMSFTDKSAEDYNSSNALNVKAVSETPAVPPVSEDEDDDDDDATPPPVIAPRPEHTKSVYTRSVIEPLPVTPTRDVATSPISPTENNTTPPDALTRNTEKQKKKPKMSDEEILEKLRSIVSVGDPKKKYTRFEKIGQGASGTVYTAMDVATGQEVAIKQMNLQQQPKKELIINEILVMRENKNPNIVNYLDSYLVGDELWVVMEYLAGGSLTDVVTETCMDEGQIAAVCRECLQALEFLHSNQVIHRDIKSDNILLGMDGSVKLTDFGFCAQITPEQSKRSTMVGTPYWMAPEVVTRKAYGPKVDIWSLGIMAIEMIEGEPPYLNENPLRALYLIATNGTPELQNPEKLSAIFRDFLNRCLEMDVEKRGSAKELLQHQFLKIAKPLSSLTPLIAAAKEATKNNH

For `O=C(Nc1cc(C(F)(F)F)cc(C(F)(F)F)c1)NC1CCN(c2ncnc3[nH]ncc23)CC1`, the “fold change (FC)” value [1] was >2, the Activity (MDA-MB-231) was 1.64% and the inhibition [2] was “Active”.
